Patent EP4663640A1 (Shanghai Institute of Materia Medica, Chinese Academy of …, priority 2023, dated 2024)

How the values were obtained:
[1] = tested on: primary cultured mouse hepatic stellate cells (HSC); test: Inhibition of TGF-β-induced hepatic stellate cell activation (α-SMA labeling); type: cell-based; settings: 1 µM compound, TGF-β 10 ng/mL, 24 hours; TGF-β alone 11.76 ± 1.47%, unstimulated 0.3 ± 0.04%; Mean ± SEM
Method: After primary cultured mouse hepatic stellate cells (HSC) were plated on 96-well black-bottom permeable plates for 24 hours, they were pre-incubated with 1 µM compound E21 and solvent control 0.1% DMSO for 1 hour, and then TGF-β was added to a final concentration of 10 ng/mL, and continued to be cultured in a CO2 incubator for 24 hours. Then the culture medium was aspirated, the plates were washed with 37 °C PBS solution for 3 times, and 4% paraformaldehyde solution was added for 30 minutes for fixation. Then 0.15% Triton X-100 solution was added for permeabilization for 10 minutes; then 5% BSA solution was added for blocking at room temperature for 1 hour; then anti-α-SMA solution (1:300) prepared with 5% BSA solution was added and incubated at 4 °C overnight; the next day, Alexa-488 anti-rabbit fluorescent secondary antibody (1:1000) prepared with 5% BSA solution was added and incubated at room temperature for 1 hour in the dark. […] After the end, the cells were washed 3 times with PBS solution and fluorescence photography was performed. The FITC filter was used to shoot green fluorescence, and the DAPI filter was used to shoot blue fluorescence. ImageJ software was used to count the total number of cells in each field of view, and the number of α-SMA positive cells was manually counted. […]

[2] = Tissue distribution in rats; type: in vivo, SD rats; settings: 2 hours after oral administration of 10 mg/kg, brain, heart, liver, spleen, lung, kidney, colon, muscle versus plasma (Figure 2)
Method: Intravenous (IV) administration: the drug to be tested was dissolved in DMSO/Solutol/normal saline at a ratio of 5:5:90 (v/v/v), with a concentration of 0.2 mg/mL, and the administration volume was 5 mL/kg. Oral (PO) administration: the drug to be tested was dissolved in DMSO/Tween 80/0.5% CMC-Na solution at a ratio of 2:2:96 (v/v/v), with a concentration of 1 mg/mL, and the administration volume was 10 mL/kg.
Male SD rats weighing 180-280g, 3 rats in each group, fasted for 12h before the experiment, had free access to water, and ate uniformly 4 h after administration. In the IV group, the rat tail vein was administered with a dose of 1mg/kg, and blood was collected at 0.083, 0.25, 0.5, 1.0, 2.0, 4.0, 6.0, 8.0, 12 and 24 h after administration. PO group, administered by gavage at a dose of 10 mg/kg, blood was collected at 0.25, 0.5, 1.0, 2.0, 4.0, 6.0, 8.0, 12 and 24 h after administration. At the above time points, 0.2 mL of blood was collected from the jugular vein and placed in an anticoagulant tube containing EDTA-K2. […] The drug concentration in the samples was quantified using LC-MS/MS method. Relevant pharmacokinetic parameters Tmax, Cmax, AUC0-∞, t1/2, etc. were calculated using WinNonlin software.

mice = test: Tail suspension test (antidepression); type: in vivo
Method: The drug to be tested was dissolved in DMSO: Tween 80: distilled water at a ratio of 2:2:96 (v/v/v), and then administered to mice by gavage at a volume of 10 mL/kg. […] The blank control group was only given 10 mL/kg of the above solvent.
The mouse tail suspension test (TST) is a widely used experimental method to evaluate the effectiveness of antidepressants and other psychotropic drugs. The principle of the test is to suspend a mouse by its tail and observe its behavior. The mouse will initially struggle to escape, but when it realizes that escape is impossible, it will eventually stop struggling and enter a state of immobility that indicates despair. This immobility behavior is used to measure depression-like states, and the severity of the condition is assessed by recording the duration of immobility.
The same mouse was subjected to the tail suspension test immediately after the marble burying test. A tail suspension test box was built using a black frosted acrylic board, 55 cm high, 15 cm long, and 11.5 cm wide. The three sides and top of the box were frosted blackboards, and one side was used for video recording. The mouse tail was wrapped with yellow tape 2 cm away from the tip of the tail, and the mouse was hung upside down in the middle of the top acrylic board. The tip of the mouse tail was about 3 cm away from the acrylic board, and the body was suspended and could not touch the surrounding board wall. The test time for each mouse lasted for 6 minutes, and the immobility time of the mouse during this time was counted. After the experiment, the mouse was returned to the cage, and the inside of the box and the table were wiped with alcohol to remove the smell of the previous mouse to prevent affecting the next mouse experiment. The criteria for immobility in the tail suspension test: stop struggling, no flexion or twisting of the body, no swinging of the hind limbs, and slight swinging of the forelimbs and head were also counted as immobility time.

[3] = Liver microsome stability test, human

| concentration in each tissue [2] | MF % ([3]; Human liver microsomes, metabolic bioavailability) [%] | half-life at 1 µM ([3]; human, liver microsomes, pH 7.4) [h] | Structure (SMILES) | proportion of α-SMA-positive cells [1] [%] | immobility time of mice in the tail suspension box (mice; oral 0.03 mg/kg, test with reduced dosage (Figure 6), comparable to 0.1 mg/kg of HC-070) | immobility time of mice (mice; oral 0.1, 0.3, 1 mg/kg, before versus after administration (Figure 4)) | Stability Evaluation ([3]; Human liver microsomes) |
| --- | --- | --- | --- | --- | --- | --- | --- |
| – | – | – | Cn1c(=O)n(CCCO)c(=O)c2c1nc(C1(F)CCC(C(F)(F)F)CC1)n2Cc1ccc(Cl)cc1 (stereo not shown) [Example E21, 7-(4-chlorobenzyl)-8-(1-fluoro-4-(trifluoromethyl)cyclohexyl)-1-(3-hydroxypropyl)-3-methyl-3,7-dihydro-1H-purine-2,6-dione] | 5.20 ± 0.74 | – | – | – |
| significantly higher than that in plasma | 55.2 | 2.2 | Cn1c(=O)n(CCCO)c(=O)c2c1nc(C1(F)CCC(F)(F)CC1)n2Cc1ccc(F)c(Cl)c1 [Example E68, 7-(3-chloro-4-fluorobenzyl)-1-(3-hydroxypropyl)-3-methyl-8-(1,4,4-trifluorocyclohexyl)-3,7-dihydro-1H-purine-2,6-dione] | – | significantly reduce | significantly reduced | Medium (30%<MF%<70%, medium metabolic stability) |
